Here are results for one molecule from patent US20240139280A1, “USE OF HIF-1-ALPHA INHIBITORS IN CANCER IMMUNOTHERAPY” (ONCOC4, INC., priority 2021, published 2024).

Data set [1] in a line: Tolerability and LD50 of intravenous echinomycin in mice. The following applies: mouse, in vivo.
For data set [2], the system named is irAE target organs (liver, kidney), spleen. Briefly: PD-L1 expression and T cell infiltration in normal tissues (liver, kidney, spleen) of E0771 tumor-bearing mice. The class given is in vivo, C57BL/6 mice. How it is done: E0771 cells (0.5×10^6) were orthotopically transplanted into C57BL/6 mice (day 0), which were divided into 6 treatment groups: vehicle, echinomycin (LEM), anti-CTLA-4 (9D9), 9D9+echinomycin, 9D9+echinomycin+XMG1.2 (an anti-IFNγ antibody), or 9D9+RMP1-14. Echinomycin (0.25 mg/kg) or mAbs (0.2 mg/mouse/injection) were given on days 6, 8, 10, and 12. On day 14, the mice were euthanized, perfused, and the spleens were dissociated and analyzed by flow cytometry, or stimulated for 4 hours with PMA+ionomycin+GolgiStop prior to intracellular staining for IFNγ. The liver and kidney were processed for immunofluorescence analysis for PD-L1. FIG. 7A. PD-L1 expression in the tumor-bearing mice treated with different therapies. Representative immunofluorescence images shown for kidney (upper) and liver tissues (lower) of mice from indicated treatment groups stained by anti-PD-L1 and DAPI. FIGS. 7B-D. T cell infiltration in the liver and kidney of tumor-bearing mice. Representative immunofluorescence images from mice in the indicated treatment groups after staining with anti-CD3 and DAPI are shown in FIG. 7B for kidney (upper panel) and liver tissues (lower panel). T cell infiltration scores in the kidney (FIG. 7C) and liver (FIG. 7D) are shown as mean±SEM infiltration scores for the kidney (FIG. 7C) and liver tissues (FIG. 7D). T cell infiltration scoring range: 0, normal/none; 1, minimal; 2, mild; 3, moderate; 4, severe. FIG. 7E. Frequency of splenic Tc1 cells among CD8^+ T cells (gated on Singlets/Live_CD45^+/CD3^+/CD8^+CD4^−), expressed as the mean±SEM. FIG. 7F. Frequencies of splenic Th1 cells among CD4^+ T cells (gated on Singlets/Live_CD45^+/CD3^+/CD8^−CD4^+), expressed as the mean±SEM. FIG. 7G. Frequency of splenic T cells (gated on Singlets/Live_CD45^+/CD3^+/CD8^+CD4^−) among total hematopoietic cells (gated on Singlets/Live_CD45^+). Representative data are shown for one of at least two independent experiments. FIG. 7H. CD3 and cleaved-caspase 3 staining in kidney and liver. Representative immunofluorescence images shown for kidney (upper) and liver tissues (lower) of mice that received 9D9 or 9D9+LEM. Caspase 3 positive cells are indicated with arrows. All data is representative of at least two independent experiments. In FIGS. 7C-G, data are presented as the mean±SEM with each dot representing an individual mouse, analyzed by one-way ANOVA with Sidak's posttest.

A word on the LD50: it is the dose at which mortality reaches 50%. High values mean a less toxic substance, low ones a more toxic substance.

In data set [1], `CSC1SC[C@H]2C(=O)N(C)[C@@H](C(C)C)C(=O)OC[C@@H](NC(=O)c3cnc4ccccc4n3)C(=O)N[C@@H](C)C(=O)N(C)[C@@H]1C(=O)N(C)[C@@H](C(C)C)C(=O)OC[C@@H](NC(=O)c1cnc3ccccc3n1)C(=O)N[C@@H](C)C(=O)N2C` (stereo in doubt) [echinomycin, N,N′-(2,4,12,15,17,25-hexamethyl-11,24-bis(1-methylethyl)-27-(methylthio)-3,6,10,13,16,19,23,26-octaoxo-9,22-dioxa-28-thia-2,5,12,15,18,25-hexaazabicyclo(12.12.3)nonacosane-7,20-diyl)bis(2-quinoxalinecarboxamide)] gave an LD50 of 0.629 mg/kg. Further, the “T cell infiltration in liver and kidney” value in data set [2] (E0771 tumor-bearing C57BL/6, anti-CD3 immunofluorescence) is listed as “did not stimulate increased infiltration”. In addition, the “PD-L1 expression in liver and kidney (immunofluorescence)” value in data set [2] (E0771 tumor-bearing C57BL/6, echinomycin 0.25 mg/kg, mAbs 0.2 mg/mouse/injection) is “also induced PD-L1”. The “PD-L1 expression in normal tissues including liver, kidney, salivary gland and colon” value in data set [2] (immunocompetent mice) is given as “induced PD-L1 expression”. The “PD-L1 induction in the liver in mice with conditional knockout of Hif1α in T cells” value in data set [2] (mouse, in vivo) is “preserved regardless of the mouse genotype”.
